Biological target: T1, CAMK1 (CaMK1) (Homo sapiens, UniProt Q14012)
T1 construct: purchased Thermo Fisher Scientific (Life Technologies) SelectScreen
Assay: SelectScreen Adapta
Assay type: biochemical
Settings: ATP 10 µM
Summary of the method: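 Percent values come from Thermo SelectScreen profiling of NU5455, combining activity and binding assays. CSF1R was run in Z'LYTE format at Km app ATP, and CAMK1 in Adapta format with ATP listed at 10.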

T1 sequence (Q14012 whole entry): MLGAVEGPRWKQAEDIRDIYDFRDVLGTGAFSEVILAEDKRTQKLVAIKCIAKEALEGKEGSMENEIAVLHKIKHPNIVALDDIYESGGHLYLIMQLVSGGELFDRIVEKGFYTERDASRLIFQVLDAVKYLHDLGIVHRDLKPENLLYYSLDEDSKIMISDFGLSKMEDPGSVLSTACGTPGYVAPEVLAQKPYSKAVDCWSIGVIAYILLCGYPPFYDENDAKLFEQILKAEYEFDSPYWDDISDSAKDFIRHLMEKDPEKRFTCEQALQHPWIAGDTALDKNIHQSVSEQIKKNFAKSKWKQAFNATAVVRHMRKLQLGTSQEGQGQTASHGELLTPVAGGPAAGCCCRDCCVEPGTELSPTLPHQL

SMILES: CN(C(=O)CN1CCOCC1)c1ccc2sc3c(-c4cccc5c(=O)cc(N6CC7CCC(C6)O7)oc45)cccc3c2c1 [NU5455]
- inhibition at 1 µM: 0.8%

Reference: paper PMC6934184, “Selective DNA-PKcs inhibition extends the therapeutic index of localized radiotherapy and chemotherapy” (The Journal of Clinical Investigation, 2019)
